Experimental data as given in ChEMBL document CHEMBL1201862, “PubChem BioAssay data set” (2004).
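Step 1: Grow cells in 96-well plates. Step 2: Expose to compound for 48 hours at 5 concentrations. Step 3: Interpolate endpoints linearly; if unreached, use highest concentration. Here, GI50 denotes the concentration required for 50% inhibition of growth.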 Active and inactive are the calls of the source. Rule as the data show it: active = GI50 up to about 1.1 µM and inactive = higher.

Legend:
Assay in all cases: inhibition of tumour cell growth, NCI panel, 48 h
A549 = test system: A549
HCC 2998 = test system: HCC 2998
HCT-116 = test system: HCT-116
HT-29 = test system: HT-29
K562 = test system: K562
MCF7 = test system: MCF7
MDA-MB-435 = test system: MDA-MB-435
OVCAR-5 = test system: OVCAR-5
RPMI-8226 = test system: RPMI-8226
SF-295 = test system: SF-295
SK-MEL-28 = test system: SK-MEL-28
SR = test system: SR
SW-620 = test system: SW-620
T47D = test system: T47D
TK-10 = test system: TK-10
UACC-62 = test system: UACC-62
HL-60 = test system: HL-60
MDA-N = test system: MDA-N
NCI-H522 = test system: NCI-H522

Compound	GI50 (A549)	GI50 (HCC 2998)	GI50 (HCT-116)	GI50 (HT-29)	GI50 (K562)	GI50 (MCF7)	GI50 (MDA-MB-435)	GI50 (OVCAR-5)	GI50 (RPMI-8226)	GI50 (SF-295)	GI50 (SK-MEL-28)	GI50 (SR)	GI50 (SW-620)	GI50 (T47D)	GI50 (TK-10)	GI50 (UACC-62)	GI50 (HL-60)	GI50 (MDA-N)	GI50 (NCI-H522)
CC1=CCC[C@H]2[C@](C)(CC3=CC(=O)C(SCC(C)C)=CC3=O)[C@@H](C)CC[C@]12C	12.5 µM (inactive)	16.3 µM (inactive)	12 µM (inactive)	15.4 µM (inactive)	5.78 µM (inactive)	9.71 µM (inactive)	15.7 µM (inactive)	18.5 µM (inactive)	3.8 µM (inactive)	16.1 µM (inactive)	15.8 µM (inactive)	7.29 µM (inactive)	17.3 µM (inactive)	2.25 µM (inactive)	16.7 µM (inactive)	14.3 µM (inactive)	–	–	–
Clc1ccccc1NN(Cc1ccncc1)c1ccccc1Cl	12.5 µM (inactive)	–	13 µM (inactive)	12.6 µM (inactive)	10.4 µM (inactive)	22.3 µM (inactive)	15.2 µM (inactive)	17.5 µM (inactive)	10.8 µM (inactive)	16.7 µM (inactive)	20.3 µM (inactive)	13.2 µM (inactive)	16.9 µM (inactive)	–	–	13.2 µM (inactive)	17 µM (inactive)	13.5 µM (inactive)	12.1 µM (inactive)
Cc1cc2c(cc1Cl)Sc1nnc(C)n1S2(=O)=O	25.1 µM (inactive)	17.7 µM (inactive)	16.1 µM (inactive)	18.5 µM (inactive)	13.8 µM (inactive)	4.44 µM (inactive)	13 µM (inactive)	29.2 µM (inactive)	–	15.7 µM (inactive)	16.9 µM (inactive)	–	15.4 µM (inactive)	8.18 µM (inactive)	15.6 µM (inactive)	15 µM (inactive)	6.78 µM (inactive)	13.8 µM (inactive)	8.69 µM (inactive)
COCOc1ccc(C(=O)Oc2cccc3c2OC(C)(C)O3)c(OCOC)c1	–	62.7 µM (inactive)	> 100 µM (inactive)	> 100 µM (inactive)	56.4 µM (inactive)	33.2 µM (inactive)	60 µM (inactive)	> 100 µM (inactive)	38.7 µM (inactive)	> 100 µM (inactive)	9.66 µM (inactive)	–	43.2 µM (inactive)	37.8 µM (inactive)	> 100 µM (inactive)	28.2 µM (inactive)	0.0181 µM (active)	> 100 µM (inactive)	–
Cn1/c(=N\S(=O)(=O)c2ccccc2)n(S(=O)(=O)c2ccccc2)c2ccccc21	47.5 µM (inactive)	–	48.9 µM (inactive)	35.6 µM (inactive)	39.9 µM (inactive)	–	58.9 µM (inactive)	> 100 µM (inactive)	48.1 µM (inactive)	62.1 µM (inactive)	> 100 µM (inactive)	–	93.1 µM (inactive)	40.6 µM (inactive)	> 100 µM (inactive)	> 100 µM (inactive)	0.598 µM (active)	61.5 µM (inactive)	50.4 µM (inactive)
O=C(Nc1nc2ccc([N+](=O)[O-])cc2s1)c1cc([N+](=O)[O-])ccc1Cl	–	–	1.71 µM (inactive)	2.48 µM (inactive)	–	–	4.04 µM (inactive)	4.26 µM (inactive)	0.989 µM (active)	3.4 µM (inactive)	–	–	2.29 µM (inactive)	3.57 µM (inactive)	3.8 µM (inactive)	–	–	1.48 µM (inactive)	1.68 µM (inactive)
Nc1nc(Cl)c(CO)c(NCC2(CO)CCC2)n1	> 100 µM (inactive)	> 100 µM (inactive)	> 100 µM (inactive)	> 100 µM (inactive)	> 100 µM (inactive)	> 100 µM (inactive)	> 100 µM (inactive)	> 100 µM (inactive)	> 100 µM (inactive)	> 100 µM (inactive)	> 100 µM (inactive)	> 100 µM (inactive)	> 100 µM (inactive)	–	> 100 µM (inactive)	–	> 100 µM (inactive)	> 100 µM (inactive)	> 100 µM (inactive)
COCCOC(=O)C1=C(O)c2ccccc2S(=O)(=O)N1C	> 100 µM (inactive)	> 100 µM (inactive)	> 100 µM (inactive)	> 100 µM (inactive)	> 100 µM (inactive)	–	> 100 µM (inactive)	> 100 µM (inactive)	> 100 µM (inactive)	> 100 µM (inactive)	> 100 µM (inactive)	> 100 µM (inactive)	> 100 µM (inactive)	> 100 µM (inactive)	> 100 µM (inactive)	> 100 µM (inactive)	> 100 µM (inactive)	> 100 µM (inactive)	> 100 µM (inactive)
